Tests used:
Type in all cases: cell-based
[1] = system: L. sativa cultivar Romaine (LR) leaf explants; experiment: Direct shoot regeneration from leaf explants, cultivar Romaine (LR)
Description: (§1) Seeds of L. sativa cultivars (New England Seed Co., Hartford, Conn.) were disinfected in a solution of 30% commercial bleach with 0.01%, Tween-20 for 5 min, rinsed five times in sterile water and placed on half strength Murashige and Skoog (MS; Murashige and Skoog, 1962) medium solidified with 0.6% Phytablend® (Caisson, N. Logan, Utah). After 21 days, fully expanded first leaves were dissected into 0.8 cm^2 and placed adaxial side on the medium. The culture medium was composed of MS basal salts, 3% sucrose and 0.6% Phytablend. Plant growth regulators were added to the medium as shown in table 1 and pH was adjusted to 5.8 prior autoclaving. Cultures were maintained at 26±2° C. at 40 μE m^2 s^−1 photon density; 16 hrs light/8 hrs dark.

[2] = system: L. sativa cultivar Great Lake (LG) leaf explants; experiment: Direct shoot regeneration from leaf explants, cultivar Great Lake (LG)
Description: as §1

[3] = system: L. sativa cultivar Evola (LE) leaf explants; experiment: Direct shoot regeneration from leaf explants, cultivar Evola (LE)
Description: as §1

[4] = system: L. sativa cultivar Simpson Elite (LS) leaf explants; experiment: Direct shoot regeneration from leaf explants, cultivar Simpson Elite (LS)
Description: as §1

[5] = system: L. sativa cultivar Lentissima (LL) leaf explants; experiment: Direct shoot regeneration from leaf explants, cultivar Lentissima (LL)
Description: as §1

Measured: EFF: Number of regenerated shoots/total explants

c1ccc(CNc2ncnc3[nH]cnc23)cc1 [BAP]
0: [1]; BAP 0.1 μg ml^−1 alone | [2]; BAP 0.1 μg ml^−1 alone | [3]; BAP 0.1 μg ml^−1 alone | [4]; BAP 0.1 μg ml^−1 alone | [5]; BAP 0.1 μg ml^−1 alone

O=C(O)Cc1cccc2ccccc12 [NAA]
0: [1]; NAA 0.1 μg ml^−1 alone | [2]; NAA 0.1 μg ml^−1 alone | [3]; NAA 0.1 μg ml^−1 alone | [4]; NAA 0.1 μg ml^−1 alone | [5]; NAA 0.1 μg ml^−1 alone

Reference: US20100325756A1, “PLASTID TRANSFORMATION UTILIZING ENDOGENOUS REGULATORY ELEMENTS” (priority 2009, published 2010)
